In patent publication US20090170759A1, “NEUROPROTECTIVE PEPTIDES” (priority 2007, published 2009):
Entries after “also recorded” stand apart in the source; their conditions may differ.

Key:
[1] = test system: rat cerebral cortical neurons; assay: Glutamate toxicity assay in primary cortical cultures; format: cell-based; conditions: pretreatment 24 h prior to 100 μM glutamate
Source text: Dissociated hippocampal and cortical cell cultures were established from embryonic day 18 rat fetuses as previously described (Mattson et al., 1994). Briefly, fetuses were removed via cesarean section from pregnant moms (Sprague-Dawley) anesthetized with halothane according to the AVMA Panel on Euthanasia. Pups were decapitated and the brains were removed and placed in HEPES-buffered Hank's Balanced Salt solution (HBSS; Gibco). The hippocampi and cortices were dissected out and pooled according to tissue-type. Tissue was trypsinized for 15 min (1 mg/ml trypsin-HBSS; Worthington), rinsed with fresh HBSS, incubated in trypsin inhibitor (1 mg/ml; Sigma) for 5 min, rinsed again with fresh HBSS and then triturated in 1 ml fresh HBSS with a fire-polished glass pipette. Dissociated cells were seeded at 30,000 cells/well onto poly-D-lysine coated 96-well plates (Collaborative BioScience). […]
Cortical cells were seeded at 200,000 cells/dish onto polyethylenimine-coated 35 mm culture dishes. […] Cell survival was measured by counting viable cells in each field pre- and post-experimental treatment. […] Data were expressed as percent of control (vehicle; mean±SD).

[2] = Plasma determinations by EPO ELISA; format: in vivo, rat; conditions: terminal sample
Source text: Plasma Determinations: Blood samples were collected from each rat via the orbital sinus at the time of sacrifice. Plasma was separated out, frozen and analyzed by EPO ELISA for determination of plasma concentration (U/ml).

[3] = test system: spontaneous hypertensive rats; assay: Experimental model of cerebral ischemia (tandem CCA/MCA occlusion), infarct volume; format: in vivo, rat; conditions: listed as EPO
Method: Male spontaneous hypertensive rats (Charles River) weighing between 250-300 g were weighed and then anesthetized with ketamine (100 mg/ml)/xylazine (20 mg/ml) cocktail (1.2 ml/kg; i.p.). The level of anesthetic was assessed by corneal reflex (air puff to eye) and leg jerk in response to tail or foot pinch. Once the rat was anesthetized, it was placed on a small animal surgical board and restrained during the surgical procedure. The rat's body temperature was monitored continuously with a rectal probe and maintained at 37° C. with a homeostatic heating pad.
Rats were rendered ischemic by tandem occlusion of the left common carotid artery and the left middle cerebral artery for 2 h followed by 22 h of reperfusion using a modification of the technique described by Brint and co-workers (J. Cereb Blood Flow Metab 8:474-485, 1988). Specifically, the left CCA was isolated through an incision in the ventral surface of the neck. […]
Study I: EPO and Vehicle Delivered Via Osmotic Mini-Pump • […] prior to the onset of ischemia, an osmotic mini-pump (Model 1003D; Alza) filled with vehicle or EPO was placed between the scapula of the rat. […] Twenty-two hours later, the rats were evaluated for behavioral performance, a blood sample was collected for terminal plasma levels of EPO and then the rat was euthanized, brain removed, sectioned and stained for histological analysis.
Study II: EPO and Vehicle Delivered as a Single Intravenous Bolus Injection • On Day One, the rats were rendered ischemic as described above. […] Twenty-two hours later, the rats were evaluated for behavioral performance, a blood sample was collected for terminal plasma levels of EPO and then the rat was euthanized, brain removed, sectioned and stained for histological analysis. […]

## rhEPO: purified, recombinant human EPO (rhEPO), currently formulated and distributed under the trademarks of EPREX, ERYPO, or PROCRIT
[1]
  maximal increase of cell survival over parallel cultures treated with glutamate alone: approximately 200%
  neuronal survival after glutamate (in words): significant increase in neuronal survival; also recorded: protects rat cerebral cortical neurons against glutamate toxicity
[2]; continuous infusion
  plasma concentrations, Study I: correlated with the protective effect
[2]; single iv bolus 1000, 2500 or 5000 U/kg
  plasma concentrations, Study II: low in each group
[3]; 132 or 1321 U/day continuous iv infusion via osmotic mini-pump, started before ischemia
  infarct volume, Study I: significantly reduced infarct volume; also recorded: protects against ischemic injury
[3]; repeat iv bolus of 2500 U/kg at 15 min, 2 h, 4 h and 6 h post-occlusion
  infarct volume, Study III: significant decrease in infarct volume; also recorded: protects against ischemic injury
[3]; single iv bolus 15 min post-occlusion at 1000, 2500 or 5000 U/kg
  ischemic damage, Study II: did not protect against ischemic damage; also recorded: does not protect against ischemic injury
